{
  "source": "patent US11634466B2",
  "about": "“Musclin peptides and methods of use thereof” (UNIVERSITY OF IOWA RESEARCH FOUNDATION, priority 2016, dated 2023)",
  "format_in_all_cases": "cell-based",
  "key": {"[1]": {"system": "musclin mRNA in murine cultured primary myoblasts", "experiment": "Musclin mRNA normalized to HPRT in murine cultured primary myoblasts", "procedure": "(§1) RNA isolation and quantitative reverse transcriptase polymerase chain reaction (qRT-PCR): Total RNA from mouse tissues and primary myocytes was isolated using RNeasy RNA Isolation Kit (Qiagen). A 1 μg primary myocyte or tissue RNA sample was used to synthesize cDNA in 50 μl reactions using Oligo(dT) as primer and SuperScript III Reverse Transcriptase (Invitrogen). Quantitative real-time PCR was performed on Mastercycler epgradient S (Eppendorf) using SYBR green based PCR reactions. For quantitative RT-PCR, 1 μl of reverse transcription reaction was mixed with 10 pmoles each specific primer and 12.5 μl SYBR PCR Master Mix (BioRad). The reaction was incubated for 40 cycles consisting of denaturation at 95° C. for 10 s and annealing/extension at 59.9° C.—for musclin, HPRT, Nrf2, 56° C.—for PGC1α, Tfam, Nrf1, for 1 min. The quality of the PCR product was routinely checked by a thermal denaturation curve following the qPCR reactions. The threshold cycle (CT) was determined by Realplex2 software (Eppendorf), and quantification of relative mRNA levels was performed by ΔΔCT method. The primers used in this study are HPRT: HPRTF—GGACCTCTCGAAGTGTTGGATAC (SEQ ID NO: 16), HPRTR—GCTCATCTTAGGCTTTGTATTTGGCT (SEQ ID NO: 17); musclin: MuscF-TGTGGACTTAGCATCACAGG (SEQ ID NO: 18), MuscR-AGC TGA GAG TCT GTC AAG G (SEQ ID NO: 19); PGC1α: PGC1aF-TGATGTGAATGACTTGGATACAGACA (SEQ ID NO: 20), PGC1αR-GCTCATTGTTGTACTGGTTGGATATG (SEQ ID NO: 21); TfamF—GGAATGTGGAGCGTGCTAAAA (SEQ ID NO: 22), TfamR—TGCTGGAAAAACACTTCGGAATA (SEQ ID NO: 23); Nrf1F—CGC AGC ACC TTT GGA GAA (SEQ ID NO: 24, Nrf1R—CCCGACCTGTGGAATACTTG (SEQ ID NO: 25); Nrf2F—CAG CTC AAG GGC ACA GTG C (SEQ ID NO: 26), Nrf2R—GTG GCC CAA GTC TTG CTC C (SEQ ID NO: 27).\n(§2) Mouse primary myoblasts were isolated from gastrocnemius muscle of 4-6 weeks old mice. Fresh muscle tissue was digested with 2 mg/ml collagenase II in DMEM-F12 for 1.5 h at 37° C.; then 30 min at 37° C. with 1 mg/ml collagenase II and 0.5 mg/ml dispase in DMEM-F12. Tissue was ground and passed through a 100 μm then 70 μm cell strainer and spun at 1000 rpm for 10 min. Myoblasts were resuspended in DMEM-F12 supplemented with 20% FBS, 40 ng/ml bFGF, non-essential amino acids, 1 mM β-mercaptoethanol. Cells were plated on matrigel coated dishes. Cells were maintained in DMEM-F12 supplemented with 20% FBS, 10 ng/ml bFGF, non-essential amino acids, 1 mM β-mercaptoethanol until 80% confluent. Then they were differentiated in DMEM-F12 supplemented with 2% FBS and insulin-transferrin-selenium for 10 days. Human skeletal myoblast primary culture (lot #SLSK002, Zenbio, Research Triangle Park, NC) was maintained according to the supplier's manual."}, "OPA1 mRNA": {"system": "OPA1 mRNA", "experiment": "OPA1 mRNA normalized to HPRT by PCR in myotube culture", "details": "n=3", "procedure": "RNA isolation and quantitative reverse transcriptase polymerase chain reaction (qRT-PCR): Total RNA from mouse tissues and primary myocytes was isolated using RNeasy RNA Isolation Kit (Qiagen). A 1 μg primary myocyte or tissue RNA sample was used to synthesize cDNA in 50 μl reactions using Oligo(dT) as primer and SuperScript III Reverse Transcriptase (Invitrogen). Quantitative real-time PCR was performed on Mastercycler epgradient S (Eppendorf) using SYBR green based PCR reactions. For quantitative RT-PCR, 1 μl of reverse transcription reaction was mixed with 10 pmoles each specific primer and 12.5 μl SYBR PCR Master Mix (BioRad). The reaction was incubated for 40 cycles consisting of denaturation at 95° C. for 10 s and annealing/extension at 59.9° C.—for musclin, HPRT, Nrf2, 56° C.—for PGC1α, Tfam, Nrf1, for 1 min. The quality of the PCR product was routinely checked by a thermal denaturation curve following the qPCR reactions. The threshold cycle (CT) was determined by Realplex2 software (Eppendorf), and quantification of relative mRNA levels was performed by relative mRNA levels was performed by ΔΔCT method. […]"}, "[2]": {"system": "Akt and FOXO1 phosphorylation in cultured murine primary myoblasts", "experiment": "Akt and FOXO1 phosphorylation by western blot in primary myoblasts with Ca2+ ionophore", "details": "1 μM ionophore, 1 mM Ca2+, n=4", "procedure": "Western blotting: Whole cell protein extracts were prepared by homogenizing skeletal muscle tissue in NaCl 150 mM, Tris-HCl 50 mM (pH 7.8), supplemented with 1.5% Triton X-100, protease and phosphatase inhibitors (Roche). Nuclear extracts were obtained using the Subcellular Protein Fractionation Kit for Tissues (Thermo Scientific).\nElectrophoresis was performed on 3-8% gradient Nu-Page Tris-Acetate or 10% Nu-Page Bis-Tris gels and transferred to 0.2 μm Sequi-Blot PVDF membranes (Bio-Rad). The membranes were blotted with total AKT1 and phospho-AKT1([…], T308, Cell Signaling), FOXO1 (Cell Signaling), total OXPHOS (rodent, Abcam), musclin (custom rabbit IgG produced against partial mouse musclin sequence NH2-sfsgfgspldrlsagsvehrgkqrkavdhskkr-COOH (SEQ ID NO: 4), corresponding to amino acids 80-112, Gen Bank ID: AAS87598.1, Anaspec, Fremont, Calif.), and GAPDH (Santa Cruz Biotechnologies) antibodies. Densitometric analysis of western blots was performed using Adobe Photoshop (Adobe Systems, San Jose, Calif.).\nas §2"}, "[3]": {"system": "musclin mRNA in human cultured primary myoblasts", "experiment": "Musclin mRNA normalized to HPRT in human cultured primary myoblasts", "procedure": "as §1, §2"}, "[4]": {"system": "cGMP production in murine primary myoblasts", "experiment": "cGMP production in skeletal myoblast culture exposed to ANP and musclin", "details": "n=3", "procedure": "Cyclic GMP levels were measured using cyclicGMP EIA kit (Cayman Chemical Company, Ann Arbor, Mich.). Mice were exercised for 5 days, 12 m/min, 45 min before tissue collection. At the day of the experiment mice were exercised 12 m/min, 20 min, sedated with isoflurane and gastrocnemius muscle tissue was collected. Cyclic nucleotides were extracted using 5% trichloracetic acid. Samples were acetylated and used for cGMP level measurements according to the manufacturer's protocol.\nas §2"}, "[5]": {"details": "0.5 μM ionophore, 1.0 mM Ca2+, n=3"}, "[6]": {"details": "1 μM ionophore, 1.0 mM Ca2+, n=3"}},
  "data": [
    {"molecule": "O=c1[nH]c2ccccc2n1C1CCN(Cc2ccc(-c3nc4cc5[nH]cnc5cc4nc3-c3ccccc3)cc2)CC1", "note": "[Akt inhibitor-viii]", "values": [
      {"measurement": "musclin mRNA", "setting": "[1]; myoblasts pre-treated with Akt inhibitor-viii before Ca2+ ionophore, n=3, p=NS vs. control", "value": "1.09±0.03", "unit": "AU"}
    ]},
    {"molecule": "Nc1nc2c(nc(Br)n2[C@@H]2O[C@@H]3COP(=O)(O)O[C@H]3[C@H]2O)c(=O)[nH]1", "note": "[8-Br-cGMP]", "values": [
      {"measurement": "OPA1 mRNA normalized to HPRT", "setting": "OPA1 mRNA; 8-Br-cGMP", "value": "5.61±0.36"}
    ]},
    {"molecule": "CNc1ccc2oc(C[C@H]3O[C@@]4(CC[C@H]3C)O[C@H]([C@H](C)C(=O)c3ccc[nH]3)[C@H](C)C[C@H]4C)nc2c1C(=O)O", "note": "[A23187]", "values": [
      {"measurement": "p-Akt/GAPDH", "setting": "[2]", "value": "0.91±0.05"},
      {"measurement": "pAkt/total Akt", "setting": "[2]", "value": "0.66±0.03"},
      {"measurement": "pFOXO1/GAPDH", "setting": "[2]", "value": "0.39±0.04"},
      {"measurement": "pFOXO1/total FOXO1", "setting": "[2]", "value": "0.27±0.03"},
      {"measurement": "musclin mRNA", "setting": "[1]; [5]", "value": "2.20±0.06", "unit": "AU"},
      {"measurement": "musclin mRNA", "setting": "[1]; [6]", "value": "3.60±0.81", "unit": "AU"},
      {"measurement": "musclin mRNA", "setting": "[1]; ionophore with removal of extracellular Ca2+ from the medium, n=3, p=NS vs. control", "value": "0.96±0.012", "unit": "AU"},
      {"measurement": "musclin mRNA", "setting": "[3]; [5]", "value": "3.02±0.23", "unit": "AU"},
      {"measurement": "musclin mRNA", "setting": "[3]; 0.5 μM ionophore, Ca2+-free buffer, n=3, p=NS", "value": "0.74±0.18", "unit": "AU"},
      {"measurement": "musclin mRNA", "setting": "[3]; [6]", "value": "3.95±0.83", "unit": "AU"},
      {"measurement": "musclin mRNA", "setting": "[3]; 1 μM ionophore, Ca2+-free buffer, n=3, p=NS", "value": "0.79±0.18", "unit": "AU"}
    ]},
    {"molecule": "CC[C@H](C)[C@@H]1NC(=O)[C@H](CCCNC(=N)N)NC(=O)[C@H](CC(=O)O)NC(=O)[C@H](CCSC)NC(=O)[C@H](CCCNC(=N)N)NC(=O)CNC(=O)CNC(=O)[C@H](Cc2ccccc2)NC(=O)[C@@H](NC(=O)[C@H](CO)NC(=O)[C@H](CO)NC(=O)[C@H](CCCNC(=N)N)NC(=O)[C@H](CCCNC(=N)N)NC(=O)[C@H](CC(C)C)NC(=O)[C@@H](N)CO)CSSC[C@@H](C(=O)N[C@@H](CC(N)=O)C(=O)N[C@@H](CO)C(=O)N[C@@H](Cc2ccccc2)C(=O)N[C@@H](CCCNC(=N)N)C(=O)N[C@@H](Cc2ccc(O)cc2)C(=O)O)NC(=O)CNC(=O)[C@H](CC(C)C)NC(=O)CNC(=O)[C@H](CO)NC(=O)[C@H](CCC(N)=O)NC(=O)[C@H](C)NC(=O)CNC1=O", "note": "[ANP, atrial natriuretic peptide, reference compound]", "values": [
      {"measurement": "cGMP production", "setting": "[4]; 1 μM ANP", "value": "3.491±0.057", "unit": "fmol/μg protein"},
      {"measurement": "cGMP production", "setting": "[4]; 5 μM ANP", "value": "6.046±0.074", "unit": "fmol/μg protein"},
      {"measurement": "OPA1 mRNA normalized to HPRT", "setting": "OPA1 mRNA; ANP 5 μM", "value": "4.21±0.24"}
    ]}
  ]
}
